# Test results reported in publication PMC7617869, “Molecular glues that inhibit deubiquitylase activity and inflammatory signaling” (Nature Structural & Molecular Biology, 2025).
# Several values for one entry are separate records, joined by “and”; a condition that tells them apart may be missing. Identical values can stand only once.
# Legend:
# [1] = tested on: AMSH* (a STAM2–AMSH fusion); assay: AMSH* IQF DUB activity assay; type: biochemical; conditions: Fig. 1g, AMSH*
# Protocol: (§1) IQF assays were performed in DUB reaction buffer containing 50 mM HEPES–NaOH pH 7.0, 100 mM NaCl, 0.1 mg ml^−1 BSA, 1 mM DTT and 0.03% v/v Brij-35. […] The final concentration of BRISC WT, all BRISC mutants, HsBRISCΔLoop, MmBRISC and DrBRISCΔNΔC was 1 nM. Other enzymes were tested at the following concentrations: 5 nM ARISC (FL), 10 nM CfBRISCΔNΔC, 250 nM AMSH* (ref. [43]), 500 nM USP2 and 1 μM trypsin (Sigma, 9002-07-7). For Michaelis–Menten experiments, 1 nM BRISC with 0–1 μM IQF K63-linked diubiquitin substrate was used. Michaelis–Menten analyses and Lineweaver–Burk plots were calculated using GraphPad Prism (version 9.0).
# To assess enzymatic activity, BRISC complexes were diluted to concentrations between 1 nM and 50 nM. […] Then, 20-μl enzyme reactions were carried out in 384-well black flat-bottom low-flange plates (Corning, 35373). DUB activity was measured using IQF K63-linked diubiquitin (LifeSensors, DU6303) at 50 nM. Cleaved diubiquitin was monitored by measuring fluorescence intensity (excitation, 544 nm; emission, 575 nm; dichroic mirror, 560 nm). Fluorescence intensity was measured every minute for 30 min at 30 °C. Fluorescence intensity units were plotted against time to generate a linear reaction progress curve, where the initial velocity (V0) corresponds to the gradient of the curve (typically achieved within 15 min). IC50 values were calculated using the GraphPad Prism (version 9.0) built-in dose–response equation for inhibitor concentration versus response (variable slope).
# [2] = target: T1, BRISC (FL) (Homo sapiens, UniProt P46736+Q15018+Q9NXR7); assay: In-gel deubiquitylation assay, TAMRA-labeled K63-tetraubiquitin, BRISC; type: biochemical; conditions: 10 μM or 100 μM inhibitor
# T1 construct: full-length BRISC (FL), ARISC (FL); made in house; host or cells: Spodoptera frugiperda Sf9 insect cells (MultiBac)
# Protocol: The inhibitor capzimin (Merck) was diluted in 1 mM DTT and incubated for 30 min at room temperature to reduce disulfide bonds required for inhibitor activity. […] DUBs were incubated with 750 nM TAMRA-labeled K63-tetraubiquitin (LifeSensors, SI6304T) for 10 min at 30 °C. Reactions were quenched by adding 2.5 μl of 4× SDS–PAGE loading dye (240 mM Tris-HCl pH 6.8, 40% v/v glycerol, 8% w/v SDS, 0.04% w/v bromophenol blue and 5% v/v β-mercaptoethanol). The samples were resolved on 4–12% NuPAGE Bis–Tris gels (Thermo Fisher Scientific). Gels were scanned using an iBright FL 1500 (Thermo Fisher Scientific) (excitation, 515–545 nm; emission, 568–617 nm; exposure, 500 ms).
# [3] = target: T2, BRISC (Homo sapiens, UniProt P46736+Q15018+Q9NXR7); assay: Michaelis–Menten analysis of BRISC inhibition; type: biochemical
# T2 construct: made in house; host or cells: Spodoptera frugiperda (Sf9) insect cells, MultiBac
# Protocol: as §1
# [4] = tested on: ISG expression in MCF10A Cas9 cells expressing BRCC45 WT; assay: MCF10A BRCC45 WT ISG expression (RT–qPCR); type: cell-based, human; conditions: hIFNα2 75 ng/ml, 2.5 μM, 4 h
# [5] = tested on: ISG expression in MCF10A Cas9 cells expressing BRCC45 R137A; assay: MCF10A BRCC45 R137A ISG expression (RT–qPCR); type: cell-based, human; conditions: hIFNα2 75 ng/ml, 2.5 μM, 4 h
structure (smiles),measurement,setting,value
O=C(NC1C2CNCC21)c1nn(C(=O)c2c(Cl)cccc2Cl)cc1NC(=O)c1c(Cl)cccc1Cl (stereo not shown) [FX-171-C],Normalised V0,[1]; FX-171-C 0.02 μM,1.102 and 0.9959 and 1.122
same,Normalised V0,[1]; FX-171-C 0.0399999 μM,1.076 and 0.9687 and 1.118
same,Normalised V0,[1]; FX-171-C 0.0599997 μM,1.166 and 0.9974 and 1.026
same,Normalised V0,[1]; FX-171-C 0.0799994 μM,1.155 and 1.046 and 1.034
same,Normalised V0,[1]; FX-171-C 0.119998 μM,1.236 and 1.107 and 1.142
same,Normalised V0,[1]; FX-171-C 0.199996 μM,1.177 and 1.065 and 1.2539
same,Normalised V0,[1]; FX-171-C 0.499975 μM,0.9946 and 0.8997 and 1.162
same,Normalised V0,[1]; FX-171-C 0.799936 μM,1.22 and 0.8896 and 1.186
same,Normalised V0,[1]; FX-171-C 1.25984 μM,1.058 and 1.1 and 1.143
same,Normalised V0,[1]; FX-171-C 1.9996 μM,1.14 and 1.15 and 1.191
same,Normalised V0,[1]; FX-171-C 3.159 μM,1.081 and 1.064 and 1.2182
same,Normalised V0,[1]; FX-171-C 5.19739 μM,0.9976 and 1.106 and 1.16
same,Normalised V0,[1]; FX-171-C 7.99364 μM,1.138 and 1.066 and 1.161
same,Normalised V0,[1]; FX-171-C 12.7839 μM,1.171 and 0.9747 and 1.21
same,Normalised V0,[1]; FX-171-C 19.96 μM,0.7795 and 0.741 and 1.28
same,Normalised V0,[1]; FX-171-C 31.4999 μM,1.112 and 1.039 and 1.002
same,Normalised V0,[1]; FX-171-C 50.147 μM,1.1142 and 0.9322 and 1.253
same,Normalised V0,[1]; FX-171-C 79.7601 μM,1.095 and 0.9276 and 1.158
same,Normalised V0,[1]; FX-171-C 125.99 μM,1.097 and 0.9974 and 1.112
same,Normalised V0,[1]; FX-171-C 199.922 μM,0.8792 and 0.8896 and 0.9452
same,inhibition of BRISC cleavage of K63-linked tetraubiquitin,[2],inhibit
same,Initial velocity (FU/min),"[3]; di-Ub-TAMRA 31.2 nM, inhibitor 48 nM",121.5 FU/min and 126.3 FU/min and 146.6 FU/min
same,Initial velocity (FU/min),"[3]; di-Ub-TAMRA 31.2 nM, inhibitor 195 nM",104.4 FU/min and 118.9 FU/min and 118.7 FU/min
same,Initial velocity (FU/min),"[3]; di-Ub-TAMRA 31.2 nM, inhibitor 781 nM",76.24 FU/min and 88.16 FU/min and 98.75 FU/min
same,Initial velocity (FU/min),"[3]; di-Ub-TAMRA 31.2 nM, inhibitor 3.12 μM",58.53 FU/min and 46.27 FU/min and 64.26 FU/min
same,Initial velocity (FU/min),"[3]; di-Ub-TAMRA 31.2 nM, inhibitor 12.5 μM",38.22 FU/min and 44.65 FU/min and 65.69 FU/min
same,Initial velocity (FU/min),"[3]; di-Ub-TAMRA 62.5 nM, inhibitor 48 nM",182.7 FU/min and 137.5 FU/min and 123.2 FU/min
same,Initial velocity (FU/min),"[3]; di-Ub-TAMRA 62.5 nM, inhibitor 195 nM",166.2 FU/min and 105.9 FU/min and 106.4 FU/min
same,Initial velocity (FU/min),"[3]; di-Ub-TAMRA 62.5 nM, inhibitor 781 nM",126.7 FU/min and 95.78 FU/min and 99.98 FU/min
same,Initial velocity (FU/min),"[3]; di-Ub-TAMRA 62.5 nM, inhibitor 3.12 μM",70.11 FU/min and 76.58 FU/min and 69.67 FU/min
same,Initial velocity (FU/min),"[3]; di-Ub-TAMRA 62.5 nM, inhibitor 12.5 μM",34.93 FU/min and 52.19 FU/min and 58.9 FU/min
same,Initial velocity (FU/min),"[3]; di-Ub-TAMRA 62.5 nM, inhibitor 50 μM",28.22 FU/min and 40.49 FU/min and 46.74 FU/min
same,Initial velocity (FU/min),"[3]; di-Ub-TAMRA 125 nM, inhibitor 48 nM",467.2 FU/min and 386.6 FU/min and 434.5 FU/min
same,Initial velocity (FU/min),"[3]; di-Ub-TAMRA 125 nM, inhibitor 195 nM",414.6 FU/min and 331.3 FU/min and 418.4 FU/min
same,Initial velocity (FU/min),"[3]; di-Ub-TAMRA 125 nM, inhibitor 781 nM",304.6 FU/min and 276.4 FU/min and 303.4 FU/min
same,Initial velocity (FU/min),"[3]; di-Ub-TAMRA 125 nM, inhibitor 3.12 μM",173.8 FU/min and 175.1 FU/min and 170.4 FU/min
same,Initial velocity (FU/min),"[3]; di-Ub-TAMRA 125 nM, inhibitor 12.5 μM",92.02 FU/min and 100.3 FU/min and 111.4 FU/min
same,Initial velocity (FU/min),"[3]; di-Ub-TAMRA 125 nM, inhibitor 50 μM",36.3 FU/min and 46.67 FU/min and 63.46 FU/min
same,Initial velocity (FU/min),"[3]; di-Ub-TAMRA 250 nM, inhibitor 48 nM",794.1 FU/min and 722.2 FU/min and 770.5 FU/min
same,Initial velocity (FU/min),"[3]; di-Ub-TAMRA 250 nM, inhibitor 195 nM",732.8 FU/min and 688 FU/min and 641.2 FU/min
same,Initial velocity (FU/min),"[3]; di-Ub-TAMRA 250 nM, inhibitor 781 nM",548.6 FU/min and 487.2 FU/min and 518.3 FU/min
same,Initial velocity (FU/min),"[3]; di-Ub-TAMRA 250 nM, inhibitor 3.12 μM",309.4 FU/min and 322.6 FU/min and 305.6 FU/min
same,Initial velocity (FU/min),"[3]; di-Ub-TAMRA 250 nM, inhibitor 12.5 μM",178.9 FU/min and 174 FU/min and 179.5 FU/min
same,Initial velocity (FU/min),"[3]; di-Ub-TAMRA 250 nM, inhibitor 50 μM",67.25 FU/min and 84.89 FU/min and 62.1 FU/min
same,Initial velocity (FU/min),"[3]; di-Ub-TAMRA 500 nM, inhibitor 48 nM",1729 FU/min and 1553 FU/min and 1273 FU/min
same,Initial velocity (FU/min),"[3]; di-Ub-TAMRA 500 nM, inhibitor 195 nM",1442 FU/min and 1370 FU/min and 1434 FU/min
same,Initial velocity (FU/min),"[3]; di-Ub-TAMRA 500 nM, inhibitor 781 nM",1085 FU/min and 985.1 FU/min and 1129 FU/min
same,Initial velocity (FU/min),"[3]; di-Ub-TAMRA 500 nM, inhibitor 3.12 μM",624.9 FU/min and 642.2 FU/min and 551.1 FU/min
same,Initial velocity (FU/min),"[3]; di-Ub-TAMRA 500 nM, inhibitor 12.5 μM",332.6 FU/min and 297.9 FU/min and 255.2 FU/min
same,Initial velocity (FU/min),"[3]; di-Ub-TAMRA 500 nM, inhibitor 50 μM",109.3 FU/min and 143.3 FU/min and 196.9 FU/min
same,Initial velocity (FU/min),"[3]; di-Ub-TAMRA 1000 nM, inhibitor 48 nM",2734 FU/min and 2460 FU/min and 2836 FU/min
same,Initial velocity (FU/min),"[3]; di-Ub-TAMRA 1000 nM, inhibitor 195 nM",2231 FU/min and 2296 FU/min and 2566 FU/min
same,Initial velocity (FU/min),"[3]; di-Ub-TAMRA 1000 nM, inhibitor 781 nM",1629 FU/min and 1647 FU/min and 1858 FU/min
same,Initial velocity (FU/min),"[3]; di-Ub-TAMRA 1000 nM, inhibitor 3.12 μM",1134 FU/min
same,Initial velocity (FU/min),"[3]; di-Ub-TAMRA 1000 nM, inhibitor 50 μM",213.3 FU/min and 360.7 FU/min and 415.9 FU/min
same,mode of inhibition,[3]; enzyme activity at different substrate concentrations,not competitive inhibitors
same,"ISG expression (ISG15, IFIT1, IFIT2, IFITM1, CXCL10)",[4],reduced gene expression for all five ISGs
same,"ISG expression (ISG15, IFIT1, IFIT2, IFITM1, CXCL10)",[5],a reduction in ISG expression was not observed
